From patent US20260007774A1, “AAV-MEDIATED DELIVERY OF RGS10 TO MICROGLIA” (NEURONITY THERAPEUTICS, INC., priority 2022, published 2026)

Key:
RGS10 KD BV2 cells = experiment: TNF-α production after antioxidant treatment, RGS10 KD BV2 microglia (Meso-Scale Discovery immunoassay); format: cell-based, mouse; details: 5 mM, 18 hours
Protocol: (§1) BV2 cells are a type of microglial cell line that was originally derived from a C57/B16 mouse. BV2 cells were immortalized by v-raf/v-myc J2 retrovirus.
(§2) The role of RGS10 in regulating a response to inflammatory and metabolic stresses was assessed in microglia cells. BV2 cells were grown in culture and RGS10 expression in BV2 cells was diminished by CRISPR/Cas9 RGS10 knockout methods. Control cells were obtained from CRISPR/Cas9 controls.
(§3) Control and RGS10 KD BV2 cells were allocated into 2 test conditions. The 2 test conditions were 1) Control (no treatment) 2) N-acetylcysteine (NAC) treatment (5 mM). NAC is an antioxidant precursor. NAC is a precursor of L-cysteine that results in biosynthesis of glutathione. Glutathione is a powerful, naturally occurring antioxidant. NAC also acts directly as a scavenger of free radicals, especially oxygen radicals, illustrating extensive antioxidant properties of NAC treatment. NAC treatment in cells leads to a reduction in reactive oxidative species (ROS).
(§4) Cultured cells were subjected to test conditions for 18 hours and then assayed for production of TNF-α using an immunoassay (Meso-Scale Discovery). Values for TNF-α production in Control and RGS10 KD BV2 cells under Condition 1) were scaled to value of 1.0. Values for TNF-α production after NAC treatment were represented as a % of change relative to Condition 1) levels and were graphed in FIG. 3.

Control BV2 cells = experiment: TNF-α production after antioxidant treatment, Control BV2 microglia (Meso-Scale Discovery immunoassay); format: cell-based, mouse; details: 5 mM, 18 hours
Protocol: as §1, §2, §3, §4

With `CC(=O)N[C@@H](CS)C(=O)O` [NAC, N-acetylcysteine] the “TNF-α production after treatment vs no treatment” value (RGS10 KD BV2 cells) was “statistically significant reduction in level of TNF-α production” and the “TNF-α production after treatment vs no treatment” value (Control BV2 cells) was “statistically significant reduction in level of TNF-α production”.
